Assay results reported in US20220363665A1, “QUINOLINE COMPOUNDS FOR THE TREATMENT OF AUTOIMMUNE DISEASE” (Hoffmann-La Roche Inc., priority 2019, published 2022).

Biological target: T1, human TLR7 (Homo sapiens, UniProt Q9NYK1)
T1 construct: host or cells: HEK293 (HEK-Blue hTLR7)
T1 sequence (Q9NYK1 27-1049): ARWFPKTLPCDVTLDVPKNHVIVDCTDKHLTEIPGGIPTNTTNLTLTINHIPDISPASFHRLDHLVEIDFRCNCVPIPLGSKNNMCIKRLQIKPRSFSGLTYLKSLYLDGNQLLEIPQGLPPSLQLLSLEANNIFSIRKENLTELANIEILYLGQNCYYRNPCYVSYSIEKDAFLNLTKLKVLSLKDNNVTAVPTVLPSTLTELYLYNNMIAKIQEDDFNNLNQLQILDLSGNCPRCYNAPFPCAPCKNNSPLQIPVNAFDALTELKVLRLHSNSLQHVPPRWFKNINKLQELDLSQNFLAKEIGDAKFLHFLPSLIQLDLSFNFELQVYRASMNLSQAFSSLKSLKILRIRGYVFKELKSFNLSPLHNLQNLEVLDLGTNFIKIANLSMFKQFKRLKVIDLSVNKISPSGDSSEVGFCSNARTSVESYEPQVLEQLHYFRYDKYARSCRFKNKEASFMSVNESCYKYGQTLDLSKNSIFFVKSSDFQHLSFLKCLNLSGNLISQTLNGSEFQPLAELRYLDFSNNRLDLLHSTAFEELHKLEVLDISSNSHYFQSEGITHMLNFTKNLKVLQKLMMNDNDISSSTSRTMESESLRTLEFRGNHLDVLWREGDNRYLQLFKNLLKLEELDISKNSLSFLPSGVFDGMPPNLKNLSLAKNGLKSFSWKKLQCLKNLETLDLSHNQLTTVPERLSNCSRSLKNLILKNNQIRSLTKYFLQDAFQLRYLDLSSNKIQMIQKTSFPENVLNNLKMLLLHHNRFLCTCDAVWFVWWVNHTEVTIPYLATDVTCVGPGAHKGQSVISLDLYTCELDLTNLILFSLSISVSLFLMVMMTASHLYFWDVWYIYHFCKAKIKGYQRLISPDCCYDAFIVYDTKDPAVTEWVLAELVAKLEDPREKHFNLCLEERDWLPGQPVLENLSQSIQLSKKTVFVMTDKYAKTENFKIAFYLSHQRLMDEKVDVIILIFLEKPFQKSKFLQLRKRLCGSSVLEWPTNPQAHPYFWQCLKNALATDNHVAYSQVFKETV
Experiment: HEK293-Blue-hTLR-7 cells assay (SEAP reporter, R848 stimulation)
Assay type: cell-based
Conditions: HEK293-Blue-hTLR7 cells, R848, 20 hrs
Procedure: The following tests were carried out in order to determine the activity of the compounds of formula (I) in HEK293-Blue-hTLR-7/8/9 cells assay.
HEK293-Blue-hTLR-7 Cells Assay:
A stable HEK293-Blue-hTLR-7 cell line was purchased from InvivoGen (Cat. #: hkb-htlr7, San Diego, Calif. USA). These cells were originally designed for studying the stimulation of human TLR7 by monitoring the activation of NF-κB. A SEAP (secreted embryonic alkaline phosphatase) reporter gene was placed under the control of the IFN-β minimal promoter fused to five NF-κB and AP-1-binding sites. The SEAP was induced by activating NF-κB and AP-1 via stimulating HEK-Blue hTLR7 cells with TLR7 ligands. Therefore the reporter expression was declined by TLR7 antagonist under the stimulation of a ligand, such as R848 (Resiquimod), for incubation of 20 hrs. The cell culture supernatant SEAP reporter activity was determined using QUANTI-Blue™ kit (Cat. #: rep-qbl, Invivogen, San Diego, Calif., USA) at a wavelength of 640 nm, a detection medium that turns purple or blue in the presence of alkaline phosphatase.
HEK293-Blue-hTLR7 cells were incubated at a density of 250,000˜450,000 cells/mL in a volume of 170 μL in a 96-well plate in Dulbecco's Modified Eagle's medium (DMEM) containing 4.5 g/L glucose, 50 U/mL penicillin, […], […], 2 mM L-glutamine, 10% (v/v) heat-inactivated fetal bovine serum with addition of 20 μL A test compound in a serial dilution in the presence of final DMSO at 1% and 10 μL of 20 uM R848 in above DMEM, perform incubation under 37° C. in a CO2 incubator for 20 hrs. Then 20 μL of the supernatant from each well was incubated with 180 μQuanti-blue substrate solution at 37° C. for 2 hrs and the absorbance was read at 620˜655 nm using a spectrophotometer. The signalling pathway that TLR7 activation leads to downstream NF-κB activation has been widely accepted, and therefore similar reporter assay was modified for evaluating TLR7 antagonist.

| IC50 [nM] | SMILES |
| --- | --- |
| 8 | C[C@@H]1CN(c2ccc(C(F)(F)F)c3ncccc23)C[C@H](C(=O)NC2CC3CNCC32)O1 (single isomer, unassigned) [Example 49C] |
| 130 | C[C@@H]1CN(c2ccc(C(F)(F)F)c3ncccc23)C[C@H](C(=O)N2CCC3(CCNC3)C2)O1 (stereo partly shown) [Example 36] |
| 65 | CC(NC(=O)[C@H]1CN(c2ccc(C(F)(F)F)c3ncccc23)C[C@@H](C)O1)C1CN(C)CCO1 (single isomer, unassigned) [Example 35B] |
| 360 | C[C@@H]1CN(c2ccc(C(F)(F)F)c3ncccc23)C[C@H](C(=O)N2CCC(N)C2)O1 (stereo partly drawn) [Example 10, (3-aminopyrrolidin-1-yl)-[(2R,6R)-6-methyl-4-[8-(trifluoromethyl)-5-quinolyl]morpholin-2-yl]methanone] |
| 30 | Cc1ccc(N2C[C@@H](C)C[C@@H](N)C2)c2cccnc12 [Example 15, (3R,5S)-5-methyl-1-(8-methyl-5-quinolyl)piperidin-3-amine] |
| 25 | C[C@@H]1CN(c2ccc(C(F)(F)F)c3ncccc23)C[C@H](C(=O)NC2CC3CNCC32)O1 (single isomer, unassigned) [Example 49A] |
| 20 | C[C@@H]1CN(c2ccc(C(F)(F)F)c3ncccc23)C[C@H](C(=O)NC2CC3CNCC32)O1 (single isomer, unassigned) [Example 49B] |
| 39 | C[C@@H]1CN(c2ccc(Cl)c3ncccc23)C[C@H](C(=O)N[C@H]2CNC[C@H]2F)O1 [Example 22, (2R,6R)-4-(8-chloro-5-quinolyl)-N-[(3S,4R)-4-fluoropyrrolidin-3-yl]-6-methyl-morpholine-2-carboxamide] |
| 140 | Cc1ccc(N2C[C@@H](C)O[C@@H](C(=O)NCC3CN(C)CCO3)C2)c2cccnc12 (stereo partly drawn) [Example 17, (2R,6R)-6-methyl-N-[(4-methylmorpholin-2-yl)methyl]-4-(8-methyl-5-quinolyl)morpholine-2-carboxamide] |
| 21 | C[C@@H]1CN(c2ccc(C(F)(F)F)c3ncccc23)C[C@H](C(=O)NC2C3CNCC2COC3)O1 (single isomer, unassigned) [Example 46B] |
| 150 | C[C@@H]1CN(c2ccc(C(F)(F)F)c3ncccc23)C[C@H](C(=O)N2CCC(N)CC2)O1 [Example 12, (4-amino-1-piperidyl)-[(2R,6R)-6-methyl-4-[8-(trifluoromethyl)-5-quinolyl]morpholin-2-yl]methanone] |
| 2 | C[C@@H]1CN(c2ccc(C(F)(F)F)c3ncccc23)C[C@H](C(=O)NC2CC3CNCC(C3)C2)O1 (stereo partly drawn) [Example 37, (2R,6R)-N-(3-azabicyclo[3.3.1]nonan-7-yl)-6-methyl-4-[8-(trifluoromethyl)-5-quinolyl]morpholine-2-carboxamide] |
| 4 | C[C@@H]1CN(c2ccc(C(F)(F)F)c3ncccc23)C[C@H](C(=O)NC2CCCNCC2)O1 (stereo partly drawn) [Example 8, (2R,6R)-N-(azepan-4-yl)-6-methyl-4-[8-(trifluoromethyl)-5-quinolyl]morpholine-2-carboxamide] |
| 60 | C[C@@H]1CN(c2ccc(C(F)(F)F)c3ncccc23)C[C@H](C(=O)NC[C@@H]2C[C@@H](F)CN2)O1 [Example 27, (2R,6R)-N-[[(2S,4R)-4-fluoropyrrolidin-2-yl]methyl]-6-methyl-4-[8-(trifluoromethyl)-5-quinolyl]morpholine-2-carboxamide] |
| 71 | Cc1ccc(N2C[C@@H](C)O[C@@H](C(=O)N[C@@H]3CNC[C@@H]3F)C2)c2cccnc12 [Example 21, cis-(2R,6R)-N-14-fluoropyrrolidin-3-yl1-6-methyl-4-(8-methyl-5-quinolyl)morpholine-2carboxamide] |
| 6 | C[C@@H]1CN(c2ccc(C(F)(F)F)c3ncccc23)C[C@H](C(=O)NCC2CCCCN2C)O1 (stereo partly drawn) [Example 4, (2R,6R)-6-methyl-N-[(1-methyl-2-piperidyl)methyl]-4-[8-(trifluoromethyl)-5-quinolyl]morpholine-2-carboxamide] |
| 10 | C#Cc1ccc(N2C[C@@H](C)O[C@@H](C(=O)NC3CCN(C)CC3)C2)c2cccnc12 [Example 43, (2R,6R)-4-(8-ethynyl-5-quinolyl)-6-methyl-N-(1-methyl-4-piperidyl)morpholine-2-carboxamide] |
| 23 | C[C@@H]1CN(c2ccc(Cl)c3ncccc23)C[C@H](C(=O)NCC2CN(C)CCO2)O1 (stereo partly drawn) [Example 26, (2R,6R)-4-(8-chloro-5-quinolyl)-6-methyl-N-[(4-methylmorpholin-2-yl)methyl]morpholine-2-carboxamide] |
| 63 | C[C@@H]1CN(c2ccc(C(F)(F)F)c3ncccc23)C[C@H](C(=O)N2CC(N)C2)O1 [Example 7, (3-aminoazetidin-1-yl)-[(2R,6R)-6-methyl-4-[8-(trifluoromethyl)-5-quinolyl]morpholin-2-yl]methanone] |
| 12 | C[C@@H]1CN(c2ccc(C(F)(F)F)c3ncccc23)C[C@H](C(=O)NCC2CN(C)CCO2)O1 (stereo partly drawn) [Example 3, (2R,6R)-6-methyl-N-[(4-methylmorpholin-2-yl)methyl]-4-[8-(trifluoromethyl)-5-quinolyl]morpholine-2-carboxamide] |
| 370 | C[C@@H]1CN(c2ccc(C(F)(F)F)c3ncccc23)C[C@H](C(=O)NC[C@@H]2CC(F)(F)CN2)O1 [Example 30] |
| 7 | C[C@@H]1CN(c2ccc(C(F)(F)F)c3ncccc23)C[C@H](C(=O)NC2CCN(C)CC2)O1 [Example 5, (2R,6R)-6-methyl-N-(1-methyl-4-piperidyl)-4-[8-(trifluoromethyl)-5-quinolyl]morpholine-2-carboxamide] |
| 200 | C[C@@H]1CN(c2ccc(C(F)(F)F)c3ncccc23)C[C@H](C(=O)NC2CNCC(F)(F)C2)O1 (stereo partly drawn) [Example 28, (2R,6R)-N-(5,5-difluoro-3-piperidyl)-6-methyl-4-[8-(trifluoromethyl)-5-quinolyl]morpholine-2-carboxamide] |

| SMILES | IC50 [nM] |
| --- | --- |
| C[C@@H]1CN(c2ccc(C(F)(F)F)c3ncccc23)C[C@H](C(=O)NC2CC3CCCC(C2)N3)O1 (single isomer, unassigned) [Example 34B] | 7 |
| C[C@@H]1CN(c2ccc([N+](=O)[O-])c3ncccc23)C[C@H](C(=O)NC2CCN(C)CC2)O1 [Example 20, (2R,6R)-6-methyl-N-(1-methyl-4-piperidyl)-4-(8-nitro-5-quinolyl)morpholine-2-carboxamide] | 2 |
| C[C@@H]1CN(c2ccc([N+](=O)[O-])c3ncccc23)C[C@H](C(=O)N[C@@H]2CNC[C@@H]2F)O1 [Example 19, cis-(2R,6R)-N-[41-fluoropyrrolidin-3-yl]-6-methyl-4-(8-nitro-5-quinolyl)morpholine-2-carboxamide] | 14 |
| C[C@@H]1CN(c2ccc(C(F)(F)F)c3ncccc23)C[C@H](C(=O)NC2CC3CCCC(C2)N3)O1 (single isomer, unassigned) [Example 34A] | 4 |
| C[C@@H]1CN(c2ccc(C(F)(F)F)c3ncccc23)C[C@H](C(=O)NC2CN(C)CC23CC3)O1 (stereo partly drawn) [Example 9, (2R,6R)-6-methyl-N-(5-methyl-5-azaspiro[2.4]heptan-7-yl)-4-[8-(trifluoromethyl)-5-quinolyl]morpholine-2-carboxamide] | 14 |
